≈ marks a conversion by molar mass, not a printed value.
What was measured:
Assay type in all cases: cell-based
P. aeruginosa RDK 184 = test: MIC broth microdilution, P. aeruginosa; conditions: Pseudomonas aeruginosa, RDK184, 20 hours of incubation
Protocol: (§1) Minimal inhibitory concentrations were determined by the broth microdilution method in 96-wells plate format following the Clinical and Laboratory Standards Institute (CLSI) guidelines given in “Methods for Dilution Antimicrobial Susceptibility Tests for Bacteria That Grow Aerobically, Approved Standard, 10th Edition, CLSI document M07-A10, Wayne, PA: Clinical and Laboratory Standards Institute, USA, 2015” and European Committee on Antimicrobial Susceptibility Testing (EUCAST) recommendations given in “The European Committee on Antimicrobial Susceptibility Testing, Breakpoint tables for interpretation of MICs and zone diameters, Version 5.0, 2015”. All exemplified compounds were tested on several Gram-positive (S. aureus, methicillin-resistant Staphylococcus aureus (MRSA), methicillin-resistant
(§2) Staphylococcus schleiferi subspecies coagulans, methicillin-resistant Staphylococcus pseudintermedius
(§3) (S-48, S-84, S-35, S-52, S-40 and S-51), Streptococcus agalactiae and Enterococcus faecalis) and Gram-negative bacteria (E. coli, Salmonella Alachua and Pseudomonas aeruginosa).
(§4) The MICs were visually determined as the lowest compound concentration inhibiting bacterial growth after 20 hours of incubation time. […] MIC values are represented in Table 2.

[1] = tested on: methicillin-resistant Staphylococcus pseudintermedius S-40; test: MIC broth microdilution, MRSP S-40; conditions: 20 hours of incubation
Protocol: as §1, §2, §3, §4

[2] = tested on: methicillin-resistant Staphylococcus pseudintermedius S-35; test: MIC broth microdilution, MRSP S-35; conditions: 20 hours of incubation
Protocol: as §1, §2, §3, §4

[3] = tested on: methicillin-resistant Staphylococcus schleiferi subspecies coagulans; test: MIC broth microdilution, MRSS; conditions: 20 hours of incubation
Protocol: as §1, §2, §3, §4

[4] = tested on: methicillin-resistant Staphylococcus pseudintermedius S-51; test: MIC broth microdilution, MRSP S-51; conditions: 20 hours of incubation
Protocol: as §1, §2, §3, §4

[5] = tested on: methicillin-resistant Staphylococcus pseudintermedius S-84; test: MIC broth microdilution, MRSP S-84; conditions: 20 hours of incubation
Protocol: as §1, §2, §3, §4

HepG2 (ATCC) cell line = test: Cytotoxicity, metabolic cell activity (CellTiter 96 AQueous One), HepG2; conditions: two independent experiments
Protocol: (§5) Cytotoxicity was assessed in assay measuring metabolic cell activity performed on HepG2 (ATCC) and HUVEC (ATCC) cell lines according to the protocol of CellTiter 96® AQueous One Solution Cell Proliferation Assay 2018, Promega, USA, 2001. The method involved absorbance measurements after the treatment of cells with compounds at concentrations 1 μM and 50 μM.
(§6) The results are given as the mean percentage of metabolic activity of treated cells from two independent experiments and are represented in Table 3.

C. jejuni RDK-135 = test: MIC broth microdilution, C. jejuni; conditions: Campylobacter jejuni, RDK135, 20 hours of incubation
Protocol: as §1, §4

[6] = tested on: methicillin-resistant Staphylococcus pseudintermedius S-48; test: MIC broth microdilution, MRSP S-48; conditions: 20 hours of incubation
Protocol: as §1, §2, §3, §4

E. faecalis DRK 057 = test: MIC broth microdilution, E. faecalis; conditions: Enterococcus faecalis, DRK057, 20 hours of incubation
Protocol: as §1, §2, §3, §4

S. aureus = test: MIC broth microdilution, S. aureus; conditions: Staphylococcus aureus, 20 hours of incubation
Protocol: as §1, §2, §3, §4

[7] = tested on: methicillin-resistant Staphylococcus pseudintermedius S-52; test: MIC broth microdilution, MRSP S-52; conditions: 20 hours of incubation
Protocol: as §1, §2, §3, §4

HUVEC (ATCC) cell line = test: Cytotoxicity, metabolic cell activity (CellTiter 96 AQueous One), HUVEC; conditions: two independent experiments
Protocol: as §5, §6

SMILES: COc1ccc2nccc(CCN3CCC(NCc4ccc(Cl)cc4)CC3)c2n1 [Compound C6, N-(4-chlorobenzyl)-1-(2-(6-methoxy-1,5-naphthyridin-4-yl)ethyl)piperidin-4-amine]
- MIC (P. aeruginosa RDK 184): > 128 µg/mL
- MIC [1]: 0.25 µg/mL (≈ 0.608 µM)
- MIC [2]: 0.25 µg/mL (≈ 0.608 µM)
- MIC [3]: ≤ 0.0078 µg/mL
- MIC [4]: 0.25 µg/mL (≈ 0.608 µM)
- MIC [5]: 0.25 µg/mL (≈ 0.608 µM)
- mean percentage of metabolic activity of treated cells, HepG2 1 μM (HepG2 (ATCC) cell line; HepG2, compound 1 μM): 84.5 ± 11.1%
- mean percentage of metabolic activity of treated cells, HepG2 50 μM (HepG2 (ATCC) cell line; HepG2, compound 50 μM): 0.9 ± 0.1%
- MIC (C. jejuni RDK-135): 2 µg/mL (≈ 4.87 µM)
- MIC [6]: 0.25 µg/mL (≈ 0.608 µM)
- MIC (E. faecalis DRK 057): 1 µg/mL (≈ 2.43 µM)
- MIC (S. aureus): 0.125 µg/mL (≈ 0.304 µM)
- MIC [7]: 0.5 µg/mL (≈ 1.22 µM)
- mean percentage of metabolic activity of treated cells, HUVEC 1 μM (HUVEC (ATCC) cell line; compound 1 μM): 86.1 ± 17.1%
- mean percentage of metabolic activity of treated cells, HUVEC 50 μM (HUVEC (ATCC) cell line; compound 50 μM): −0.6 ± 0.4%

Reference: US20250197394A1, “ANTIBACTERIALS BASED ON MONOCYCLIC FRAGMENTS COUPLED TO AMINOPIPERIDINE NAPHTHYRIDINE SCAFFOLD” (UNIVERZA V LJUBLJANI, priority 2019, published 2025)
